From patent US10752587B2, “Homobispiperidinyl derivatives as liver X receptor beta agonists, compositions and their use” (Merck Sharp & Dohme Corp., priority 2015, dated 2020)
Like-named read-outs stand apart in the source and are kept apart here.

Columns and labels:
[1] = molecular target: T1, glutathione-S-transferase (GST) tagged LXRbeta LBD (ligand binding domain) (Homo sapiens, UniProt P55055); experiment: LanthaScreen TR-FRET Liver X Receptor Coactivator Assay, co-activator recruitment to LXRbeta LBD; format: biochemical; details: for Emax: read-out: LXR beta Activity @ max dose (%); for EC50: potency (Inflection Point, IP), co-activator recruitment to LXRbeta LBD, in relation to T0901317
T1 construct: purchased Invitrogen pv4658.pps
T1 sequence (P55055 222-460 limits assumed): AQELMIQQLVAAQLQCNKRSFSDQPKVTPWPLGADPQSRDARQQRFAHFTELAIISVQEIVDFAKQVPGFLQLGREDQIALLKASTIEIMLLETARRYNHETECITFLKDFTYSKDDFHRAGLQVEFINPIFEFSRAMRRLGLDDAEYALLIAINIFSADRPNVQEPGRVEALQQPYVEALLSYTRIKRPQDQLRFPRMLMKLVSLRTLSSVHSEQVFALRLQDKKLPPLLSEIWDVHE
In short: (§1)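 Readout is time-resolved FRET between a terbium anti-GST antibody bound to the LBD and a fluorescein-tagged coactivator peptide recruited on ligand binding. Plates were incubated at room temperature before reading. Potency (IP) and efficacy (Emax) are referenced to T0901317.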

[2] = molecular target: T2, glutathione-S-transferase (GST) tagged LXRalpha LBD (ligand binding domain) (Homo sapiens, UniProt Q13133); experiment: LanthaScreen TR-FRET Liver X Receptor Coactivator Assay, co-activator recruitment to LXRalpha LBD; format: biochemical; details: for Emax: read-out: LXR alpha Activity @ max dose (%); for EC50 / LXR alpha IP (nM): potency (Inflection Point, IP), co-activator recruitment to LXRalpha LBD, in relation to T0901317; for EC50: read-out: LXR alpha IP
T2 construct: purchased Invitrogen pv4655
T2 sequence (Q13133 209-447 limits assumed): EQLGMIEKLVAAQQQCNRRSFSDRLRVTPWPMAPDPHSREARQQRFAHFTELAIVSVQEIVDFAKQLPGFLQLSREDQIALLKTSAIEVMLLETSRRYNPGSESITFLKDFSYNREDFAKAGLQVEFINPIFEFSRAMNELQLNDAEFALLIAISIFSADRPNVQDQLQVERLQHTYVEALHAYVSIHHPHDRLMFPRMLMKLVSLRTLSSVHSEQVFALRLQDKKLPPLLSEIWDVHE
In short: as §1

[3] = efficacy at max dose, in relation to reference dual agonist T0901317

Row | SMILES | Emax [1, 3] | EC50 ([1]; read-out: LXR beta IP) | Emax [2, 3] | EC50 [2] | LXR alpha IP (nM) [2] | EC50 ([1]; LXR beta IP (nM)) | Emax [1] | Emax [2]
1 | CN(C)C(=O)c1ccc(N2CCC(CC3CCN(C(=O)C(C)(C)c4ccccc4)CC3)CC2)nc1Cl [Example 7-61, 2-chloro-N,N-dimethyl-6-(4-{[1-(2-methyl-2-phenylpropanoyl)piperidin-4-yl]methyl}piperidin-1-yl)pyridine-3-carboxamide] | 68% | 45 nM | 21% | 0.817 µM |  |  |  | 
2 | CN(C)C(=O)c1ccc(N2CCC(CC3CCN(C(=O)C(O)(c4ccccn4)C4CC4)CC3)CC2)cc1Cl (stereo not shown) [Example 2-118, 2-chloro-4-[4-({1-[cyclopropyl (hydroxy)pyridin-2-ylacetyl]piperidin-4-yl}methyl)piperidin-1-yl]-N,N-dimethyl-benzamide] |  |  |  |  | NO IP | 219 nM | 68% | 11%
3 | CNC(=O)c1ccc(N2CCC(CC3CCN(C(=O)[C@](O)(c4cccc(OC(F)(F)F)c4)C(F)(F)F)CC3)CC2)cc1Cl [Example 7-125, 2-chloro-N-methyl-4-{4-[(1-{(2R)-3,3,3-trifluoro-2-hydroxy-2-[3-(trifluoromethoxy)phenyl]propanoyl}piperidin-4-yl)methyl]piperidin-1-yl}benzamide] | 79% | 37 nM | 24% | 0.74 µM |  |  |  | 
4 | CN(C)C(=O)c1ccc(N2CCC(CC3CCN(C(=O)C(O)(c4ccnc(C(F)(F)F)c4)C(F)(F)F)CC3)CC2)cc1Cl (stereo not shown) [Example 2-40, 2-chloro-N,N-dimethyl-4-{4-[(1-{3,3,3-trifluoro-2-hydroxy-2-[2-(trifluoromethyl)pyridin-4-yl]propanoyl}piperidin-4-yl)methyl]piperidin-1-yl}benzamide] | 34% | 72 nM | 9% |  | NO IP |  |  | 
5 | COc1cccc([C@@](O)(C(=O)N2CCC(OC3CCN(c4ccc(C(=O)N(C)C)c(Cl)n4)CC3)CC2)C(F)(F)F)c1 [Example 7-153, 2-chloro-N,N-dimethyl-6-[4-({1-[(2R)-3,3,3-trifluoro-2-hydroxy-2-(3-methoxyphenyl)propanoyl]piperidin-4-yl}oxy)piperidin-1-yl]pyridine-3-carboxamide] | 100% | 25 nM | 29% | 0.89 µM |  |  |  | 
6 | COc1cc(F)cc([C@@](O)(C(=O)N2CCC(C)(CC3CCN(c4ccc(C(=O)N(C)C)c(Cl)c4)CC3)CC2)C(F)(F)F)c1 [Example 2-49, 2-chloro-N,N-dimethyl-4-[4-({4-methyl-1-[(2R)-3,3,3-trifluoro-2-(3-fluoro-5-methoxyphenyl)-2-hydroxy-propanoyl]piperidin-4-yl}methyl)piperidin-1-yl]benzamide] | 59% | 6 nM | 5% |  | NO IP |  |  | 
7 | CN(Cc1ccon1)C(=O)c1ccc(N2CCC(CC3CCN(C(=O)[C@](O)(c4ccccc4)C(F)(F)F)CC3)CC2)cc1Cl [Example 4-10, 2-chloro-N-(isoxazol-3-ylmethyl)-N-methyl-4-[4-({1-[(2R)-3,3,3-trifluoro-2-hydroxy-2-phenylpropanoyl]piperidin-4-yl}methyl)piperidin-1-yl]benzamide] | 62% | 8 nM | 30% | 0.246 µM |  |  |  | 
8 | O=C(c1ccc(N2CCC(OC3CCN(C(=O)[C@](O)(c4ccccc4)C(F)(F)F)CC3)CC2)cc1Cl)N1CCC[C@H]1CO [Example 4-7, (2R)-3-(4-{[1-(3-chloro-4-{[(2S)-2-(hydroxy-methyl)pyrrolidin-1-yl]carbonyl}phenyl)piperidin-4-yl]oxy}piperidin-1-yl)-1,1,1-trifluoro-3-oxo-2-phenylpropan-2-ol] | 76% | 31 nM | 50% | 0.516 µM |  |  |  | 
9 | CC(C)Oc1cccc([C@@](O)(C(=O)N2CCC(C)(CC3CCN(c4ccc(C(=O)N(C)C)c(Cl)c4)CC3)CC2)C(F)(F)F)c1 [Example 2-55, 2-chloro-N,N-dimethyl-4-{4-[(4-methyl-1-{(2R)-3,3,3-trifluoro-2-hydroxy-2-[3-(1-methyl-ethoxy)phenyl]propanoyl}piperidin-4-yl)methyl]piperidin-1-yl}benzamide] | 44% | 8 nM | 0% |  | NO IP |  |  | 

Continued, in another order:

Row | Emax [1, 3] | EC50 ([1]; read-out: LXR beta IP) | Emax [2, 3] | EC50 [2] | LXR alpha IP (nM) [2] | SMILES | EC50 ([1]; LXR beta IP (nM)) | Emax [1] | Emax [2]
10 | 79% | 11 nM | 29% | 0.137 µM |  | CN(C)C(=O)c1ccc(N2CCC(CC3CCN(C(=O)[C@](O)(c4cccc(C#N)c4)C(F)(F)F)CC3)CC2)cc1Cl [Example 2-88, 2-chloro-4-[4-({1-[(2R)-2-(3-cyanophenyl)-3,3,3-trifluoro-2-hydroxy-propanoyl]piperidin-4-yl}methyl)piperidin-1-yl]-N,N-dimethyl-benzamide] |  |  | 
11 | 80% | 6 nM | 34% | 0.442 µM |  | COc1nc(N2CCC(CC3CCN(C(=O)[C@](O)(c4ccccc4)C(F)(F)F)CC3)CC2)ccc1C(=O)N(C)C [Example 7-18, 2-methoxy-N,N-dimethyl-6-[4-({1-[(2R)-3,3,3-trifluoro-2-hydroxy-2-phenylpropanoyl]piperidin-4-yl}methyl)piperidin-1-yl] pyridine-3-carboxamide] |  |  | 
12 | 95% | 48 nM | 29% | 0.658 µM |  | CN(C)C(=O)c1ccc(N2CCC(CC3CCN(C(=O)C4(c5ccccc5F)CCCC4)CC3)CC2)nc1Cl [Example 7-65, 2-chloro-6-{4-[(1-{[1-(2-fluorophenyl)cyclopentyl]carbonyl}piperidin-4-yl)methyl]piperidin-1-yl}-N,N-dimethylpyridine-3-carboxamide] |  |  | 
13 | 73% | 17 nM | 21% | 0.307 µM |  | CNC(=O)c1ccc(N2CCC(CC3CCN(C(=O)[C@](O)(c4cccc(C(C)C)c4)C(F)(F)F)CC3)CC2)cc1Cl [Example 7-123, 2-chloro-N-methyl-4-{4-[(1-{(2R)-3,3,3-trifluoro-2-hydroxy-2-[3-(1-methylethyl)phenyl]propanoyl}piperidin-4-yl)methyl]piperidin-1-yl}benzamide] |  |  | 
14 | 70% | 169 nM | 2% |  | NO IP | COc1cccc([C@@](O)(C(=O)N2CC(CC3CCN(c4ccc(C(=O)N(C)C)c(OC)n4)CC3)C2)C(F)(F)F)c1 [Example 7-21, 2-methoxy-N,N-dimethyl-6-[4-[{1-[(2R)-3,3,3-trifluoro-2-hydroxy-2-(3-methoxyphenyl)propanoyl]azetidin-3-yl}methyl)piperidin-1-yl]pyridine-3-carboxamide] |  |  | 
15 | 35% | 74 nM | 0% |  | NO IP | COc1cc(Cl)cc([C@@](O)(C(=O)N2CCC(CC3CCN(c4ccc(C(=O)N(C)C)cc4)CC3)CC2)C(F)(F)F)c1 [Example 2-138, 4-[4-({1-[(2R)-2-(3-chloro-5-methoxyphenyl)-3,3,3-trifluoro-2-hydroxy-propanoyl]piperidin-4-yl}methyl)piperidin-1-yl]-N,N-dimethyl-benzamide] |  |  | 
16 | 102% | 13 nM | 47% | 0.173 µM |  | CNC(=O)c1ccc(N2CCC(CC3CCN(C(=O)[C@](O)(c4ccccc4)C(F)(F)F)CC3)CC2)nc1Cl [Example 7-141, 2-chloro-N-methyl-6-[4-({1-[(2R)-3,3,3-trifluoro-2-hydroxy-2-phenylpropanoyl]piperidin-4-yl}methyl)piperidin-1-yl]pyridine-3-carboxamide] |  |  | 
